Active and inactive are the calls of the source. The rule behind the calls is not given here.
Tests used:
[1] = molecular target: T1, Muscarinic acetylcholine receptor M1 (Homo sapiens, UniProt P11229); assay: Agonist activity at human muscarinic M1 receptor expressed in CHO cells assessed as effect on acetylcholine-induced intracellular calcium level by FLIPR assay; format: functional, cell-based
T1 sequence (P11229 whole entry): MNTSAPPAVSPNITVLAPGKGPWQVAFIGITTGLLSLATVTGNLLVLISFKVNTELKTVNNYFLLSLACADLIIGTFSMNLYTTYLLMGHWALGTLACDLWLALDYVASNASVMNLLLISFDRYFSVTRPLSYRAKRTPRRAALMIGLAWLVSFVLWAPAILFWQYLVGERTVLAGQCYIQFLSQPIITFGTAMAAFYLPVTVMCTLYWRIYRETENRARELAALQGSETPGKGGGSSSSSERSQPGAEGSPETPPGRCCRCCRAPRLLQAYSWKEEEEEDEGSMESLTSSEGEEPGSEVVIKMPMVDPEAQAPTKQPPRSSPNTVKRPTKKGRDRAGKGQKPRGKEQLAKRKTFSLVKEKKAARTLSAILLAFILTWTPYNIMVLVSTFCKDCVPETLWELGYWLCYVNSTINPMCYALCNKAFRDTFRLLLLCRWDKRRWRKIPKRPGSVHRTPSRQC

[2] = molecular target: Muscarinic acetylcholine receptors; M1 & M2 (Homo sapiens) (UniProt P11229+P08172); assay: Selectivity ratio of EC50 for human muscarinic M2 receptor to EC50 for human muscarinic M1 receptor
[3] = molecular target: Muscarinic acetylcholine receptor M1 and M3 (Homo sapiens) (UniProt P20309+P11229); assay: Selectivity ratio of EC50 for human muscarinic M3 receptor to EC50 for human muscarinic M1 receptor
[4] = molecular target: T2, Muscarinic acetylcholine receptor M1 (Homo sapiens) (UniProt P11229); assay: Intrinsic activity at human muscarinic M1 receptor expressed in CHO cells assessed as effect on acetylcholine-induced intracellular calcium level by FLIPR assay relative to acetylcholine; format: functional, cell-based
T2 sequence (whole entry): T1 sequence (P11229 whole entry)

Homo sapiens [5] = species on record: Homo sapiens; assay: Selectivity ratio of EC50 for human muscarinic M4 receptor to EC50 for human muscarinic M1 receptor
Homo sapiens [6] = species on record: Homo sapiens; assay: Selectivity ratio of EC50 for human muscarinic M5 receptor to EC50 for human muscarinic M1 receptor
[7] = molecular target: T3, Muscarinic acetylcholine receptor M3 (Homo sapiens, UniProt P20309); assay: Inhibition of human muscarinic M3 receptor expressed in CHO cells; format: cell-based
Target sequence in this assay (P20309 whole entry): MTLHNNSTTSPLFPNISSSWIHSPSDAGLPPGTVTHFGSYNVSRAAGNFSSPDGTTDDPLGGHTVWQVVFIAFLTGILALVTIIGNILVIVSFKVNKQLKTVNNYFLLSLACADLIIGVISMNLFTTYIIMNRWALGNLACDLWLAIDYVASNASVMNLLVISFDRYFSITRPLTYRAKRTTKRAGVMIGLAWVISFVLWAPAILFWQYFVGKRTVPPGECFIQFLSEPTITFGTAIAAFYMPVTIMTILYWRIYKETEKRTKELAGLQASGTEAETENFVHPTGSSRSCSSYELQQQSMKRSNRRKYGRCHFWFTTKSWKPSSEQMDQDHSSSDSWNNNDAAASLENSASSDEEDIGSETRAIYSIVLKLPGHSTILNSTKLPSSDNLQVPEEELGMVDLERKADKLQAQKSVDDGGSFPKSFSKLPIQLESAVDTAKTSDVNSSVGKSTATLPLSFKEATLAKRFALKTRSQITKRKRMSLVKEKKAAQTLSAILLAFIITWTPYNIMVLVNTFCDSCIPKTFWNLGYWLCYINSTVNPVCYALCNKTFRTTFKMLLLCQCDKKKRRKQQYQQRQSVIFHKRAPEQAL

[8] = molecular target: T4, Muscarinic acetylcholine receptor M2 (Homo sapiens, UniProt P08172); assay: Inhibition of human muscarinic M2 receptor expressed in CHO cells; format: cell-based
T4 sequence (P08172 whole entry): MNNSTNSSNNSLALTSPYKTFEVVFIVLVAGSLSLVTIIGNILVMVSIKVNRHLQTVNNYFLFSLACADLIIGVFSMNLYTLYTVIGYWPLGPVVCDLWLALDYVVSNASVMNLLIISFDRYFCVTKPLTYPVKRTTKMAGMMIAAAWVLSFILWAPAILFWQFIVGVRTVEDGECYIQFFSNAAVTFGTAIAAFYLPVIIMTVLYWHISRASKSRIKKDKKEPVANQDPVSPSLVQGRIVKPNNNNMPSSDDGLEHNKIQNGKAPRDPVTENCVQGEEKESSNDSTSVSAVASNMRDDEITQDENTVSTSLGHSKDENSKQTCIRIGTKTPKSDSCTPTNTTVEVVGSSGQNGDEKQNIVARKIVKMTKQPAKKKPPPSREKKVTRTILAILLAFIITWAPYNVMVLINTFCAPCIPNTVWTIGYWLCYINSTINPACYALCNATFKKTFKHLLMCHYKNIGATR

[9] = molecular target: T5, Muscarinic acetylcholine receptor M4 (Homo sapiens, UniProt P08173); assay: Inhibition of human muscarinic M4 receptor expressed in CHO cells; format: cell-based
T5 sequence (P08173 whole entry): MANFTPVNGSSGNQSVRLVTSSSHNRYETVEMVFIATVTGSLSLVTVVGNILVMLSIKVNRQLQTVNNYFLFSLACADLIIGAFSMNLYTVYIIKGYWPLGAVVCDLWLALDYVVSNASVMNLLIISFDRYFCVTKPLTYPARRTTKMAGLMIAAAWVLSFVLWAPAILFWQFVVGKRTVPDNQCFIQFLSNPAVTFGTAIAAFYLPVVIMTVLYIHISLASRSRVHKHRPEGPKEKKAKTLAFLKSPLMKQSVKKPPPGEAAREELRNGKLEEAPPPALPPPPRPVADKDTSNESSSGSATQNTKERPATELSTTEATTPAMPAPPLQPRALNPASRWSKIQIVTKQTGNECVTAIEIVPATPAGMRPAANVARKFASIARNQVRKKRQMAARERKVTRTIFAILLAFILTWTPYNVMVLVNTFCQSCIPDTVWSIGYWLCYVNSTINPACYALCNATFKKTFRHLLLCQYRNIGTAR

[10] = molecular target: T6, Muscarinic acetylcholine receptor M5 (Homo sapiens, UniProt P08912); assay: Inhibition of human muscarinic M5 receptor expressed in CHO cells; format: cell-based
T6 sequence (P08912 whole entry): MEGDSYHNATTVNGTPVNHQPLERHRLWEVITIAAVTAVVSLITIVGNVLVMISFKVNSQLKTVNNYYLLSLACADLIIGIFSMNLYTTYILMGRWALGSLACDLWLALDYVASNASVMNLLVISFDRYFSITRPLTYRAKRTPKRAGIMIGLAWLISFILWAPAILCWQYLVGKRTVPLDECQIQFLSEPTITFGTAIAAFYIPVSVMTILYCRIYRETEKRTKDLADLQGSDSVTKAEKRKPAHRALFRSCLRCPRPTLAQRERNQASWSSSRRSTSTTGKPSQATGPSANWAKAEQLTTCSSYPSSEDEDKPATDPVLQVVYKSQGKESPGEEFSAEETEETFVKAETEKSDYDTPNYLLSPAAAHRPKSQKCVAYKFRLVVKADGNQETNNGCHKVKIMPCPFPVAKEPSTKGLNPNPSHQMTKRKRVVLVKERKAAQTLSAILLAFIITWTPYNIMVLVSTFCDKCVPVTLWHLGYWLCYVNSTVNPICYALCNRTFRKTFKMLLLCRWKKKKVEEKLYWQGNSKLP

[11] = molecular target: T7, Muscarinic acetylcholine receptor M4 (Homo sapiens) (UniProt P08173); assay: Agonist activity at human muscarinic M4 receptor expressed in CHO cells assessed as effect on acetylcholine-induced intracellular calcium level by FLIPR assay; format: functional, cell-based
T7 sequence (whole entry): T5 sequence (P08173 whole entry)

[12] = molecular target: T3, Muscarinic acetylcholine receptor M3; assay: Agonist activity at human muscarinic M3 receptor expressed in CHO cells assessed as effect on acetylcholine-induced intracellular calcium level by FLIPR assay; format: functional, cell-based
Target sequence in this assay (P20309 whole entry, looked up): as the sequence (P20309 whole entry) above

[13] = molecular target: T8, Muscarinic acetylcholine receptor M2 (Homo sapiens) (UniProt P08172); assay: Agonist activity at human muscarinic M2 receptor expressed in CHO cells assessed as effect on acetylcholine-induced intracellular calcium level by FLIPR assay; format: functional, cell-based
T8 sequence (whole entry): T4 sequence (P08172 whole entry)

[14] = molecular target: T9, Muscarinic acetylcholine receptor M5 (Homo sapiens) (UniProt P08912); assay: Agonist activity at human muscarinic M5 receptor expressed in CHO cells assessed as effect on acetylcholine-induced intracellular calcium level by FLIPR assay; format: functional, cell-based
T9 sequence (whole entry): T6 sequence (P08912 whole entry)

Chain of Muscarinic acetylcholine receptor M1 and M3 (Homo sapiens) (P20309 whole entry, looked up, one chain of several): as the sequence (P20309 whole entry) above

| SMILES | EC50 [1] | Ratio EC50 [2] | Ratio EC50 [3] | Intrinsic activity [4] | Ratio EC50 (Homo sapiens [5]) | Ratio EC50 (Homo sapiens [6]) | IC50 [7] | IC50 [8] | IC50 [9] | IC50 [10] | Activity [11] | Activity [12] | Activity [13] | Activity [14] |
| --- | --- | --- | --- | --- | --- | --- | --- | --- | --- | --- | --- | --- | --- | --- |
| O=C(NCC1CCNCC1)c1ccccc1-c1cc(Cl)ccc1F | 10 nM | 100 | 100 | 111% | 100 | 100 | 1000 nM | 2000 nM | 1580 nM | 5010 nM | – | – | – | – |
| Cc1ccc(-c2ccccc2C(=O)NCC2CCNCC2)cc1Cl | 12.6 nM | – | – | 91% | – | – | 251 nM | 398 nM | 398 nM | 794 nM | inactive | inactive | inactive | inactive |
| CC1CNCCC1CNC(=O)c1ccccc1-c1cccc(Cl)c1 (centres undefined) | 20 nM | 100 | 100 | 99% | 100 | 100 | 1260 nM | 3980 nM | 3160 nM | > 10000 nM | inactive | inactive | inactive | inactive |

Source: ChEMBL document CHEMBL1158607, “2' biaryl amides as novel and subtype selective M1 agonists. Part I: Identification, synthesis, and initial SAR” (Bioorg Med Chem Lett, 2010)
